Test results from patent US9113629B2, “4-amino-6-(4-substituted-phenyl)-picolinates and 6-amino-2-(4-substituted-phenyl)-pyrimidine-4-carboxylates and their use as herbicides” (DOW AGROSCIENCES LLC, priority 2013, dated 2015).

What was measured:
[1] = tested on: LOLSS: ryegrass including, Italian ryegrass (Lolium multiflorum), rigid ryegrass (Lolium rigidum), annual ryegrass (Lolium multiflorum subsp. Gaudini); assay: Post-emergent Test III, herbicidal activity in wheat and barley; format: in vivo; details: Table 9, probit analysis, 21 d; for GR50 LOLSS: dose for 50 percent growth reduction; for GR80 LOLSS: dose for 80 percent growth reduction
Protocol: (§1) Post-emergent Test III. Seeds of the desired test plant species were planted in Sun Gro MetroMix® 306 planting mixture, which typically has a pH of 6.0 to 6.8 and an organic matter content of about 30 percent, in plastic pots with a surface area of 103.2 square centimeters (cm^2). When required to ensure good germination and healthy plants, a fungicide treatment and/or other chemical or physical treatment was applied. The plants were grown for 7-36 days (d) in a greenhouse with an approximate 14 hour (h) photoperiod which was maintained at about 18° C. during the day and 17° C. during the night. Nutrients and water were added on a regular basis and supplemental lighting was provided with overhead metal halide 1000-Watt lamps as necessary. The plants were employed for testing when they reached the second or third true leaf stage.
(§2) A weighed amount, determined by the highest rate to be tested, of each test compound was placed in a 25 mL glass vial and was dissolved in 4 mL of a 97:3 v/v mixture of acetone and DMSO to obtain concentrated stock solutions. […] The concentrated stock solutions obtained were diluted with 20 mL of an aqueous mixture containing acetone, water, isopropyl alcohol, DMSO, Agri-Dex crop oil concentrate, and X-77 surfactant in a 48:39:10:1.5:1.5:0.02 v/v ratio to obtain spray solutions containing the highest application rates. Additional application rates were obtained by serial dilution of 12 mL of the high rate solution into a solution containing 2 mL of 97:3 v/v mixture of acetone and DMSO and 10 mL of an aqueous mixture containing acetone, water, isopropyl alcohol, DMSO, Agri-Dex crop oil concentrate, and X-77 surfactant in a 48:39:10:1.5:1.5:0.02 v/v ratio to obtain ½×, ¼×, ⅛× and 1/16× rates of the high rate. Compound requirements are based upon a 12 mL application volume at a rate of 187 liters per hectare (L/ha). Formulated compounds were applied to the plant material with an overhead Mandel track sprayer equipped with 8002E nozzles calibrated to deliver 187 L/ha over an application area of 0.503 square meters at a spray height of 18 inches (43 cm) above the average plant canopy height. Control plants were sprayed in the same manner with the solvent blank.
(§3) The treated plants and control plants were placed in a greenhouse as described above and watered by subirrigation to prevent wash-off of the test compounds. After 21 d, the condition of the test plants as compared with that of the untreated plants was determined visually and scored on a scale of 0 to 100 percent where 0 corresponds to no injury and 100 corresponds to complete kill.
(§4) By applying the well-accepted probit analysis as described by J. Berkson in Journal of the American Statistical Society, 48, 565 (1953) and by D. Finney in “Probit Analysis” Cambridge University Press (1952), herbicidal injury of a specific compound at various rates can be used to calculate GR20, GR50, GR80 and GR90 values, which are defined as growth reduction factors that correspond to the effective dose of herbicide required to provide plant growth reduction (GR) of 20 percent, 50 percent, 80 percent and 90 percent, respectively. Probit analysis was applied to data collected from multiple dose rates of individual compounds utilizing the procedures explained in the following examples. The analysis of those dose rates is captured in the following tables.

[2] = tested on: TRZSS: wheat, including spring and winter (Triticum aestivum); assay: as above; format: in vivo; details: Table 9, 21 d; for GR20 TRZSS: dose for 20 percent growth reduction, probit analysis; for pest or weed control at 35 g/ha: 35 g ai/ha; for pest or weed control at 70 g/ha: 70 g ai/ha
Protocol: as §1, §2, §3, §4

[3] = tested on: APESV: bentgrass (Apera spica-venti); assay: as above; format: in vivo; details: Table 9, 21 d; for pest or weed control at 35 g/ha: 35 g ai/ha; for pest or weed control at 70 g/ha: 70 g ai/ha; for GR50 APESV: dose for 50 percent growth reduction; for GR50 APESV / GR80 APESV: probit analysis; for GR80 APESV: dose for 80 percent growth reduction
Protocol: as §1, §2, §3, §4

[4] = as above; format: in vivo, Lolium multiflorum, Lolium rigidum; details: Lolium multiflorum, post-emergence, 504 h, Table 9, post-emergent, 21 d, read-out: Visual Growth Reduction (%) 21 Days After Application LOLSS; for pest or weed control at 35 g/ha: 35 g ai/ha; for pest or weed control at 70 g/ha: 70 g ai/ha
Protocol: as §1, §2, §3, §4

[5] = tested on: HORSS: barley, including spring and winter (Hordeum vulgare); assay: as above; format: in vivo; details: Table 9, 21 d; for pest or weed control at 35 g/ha: 35 g ai/ha; for pest or weed control at 70 g/ha: 70 g ai/ha; for GR20 HORSS: dose for 20 percent growth reduction, probit analysis
Protocol: as §1, §2, §3, §4

[6] = tested on: SETVI: green foxtail (Setaria viridis); assay: as above; format: in vivo; details: Table 9, 21 d; for pest or weed control at 35 g/ha: 35 g ai/ha; for pest or weed control at 70 g/ha: 70 g ai/ha; for GR50 SETVI: dose for 50 percent growth reduction; for GR50 SETVI / GR80 SETVI: probit analysis; for GR80 SETVI: dose for 80 percent growth reduction
Protocol: as §1, §2, §3, §4

[7] = tested on: KCHSC: kochia (Kochia scoparia); assay: as above; format: in vivo; details: Table 9, 21 d; for pest or weed control at 35 g/ha: 35 g ai/ha; for pest or weed control at 70 g/ha: 70 g ai/ha; for GR50 KCHSC: dose for 50 percent growth reduction; for GR50 KCHSC / GR80 KCHSC: probit analysis; for GR80 KCHSC: dose for 80 percent growth reduction
Protocol: as §1, §2, §3, §4

[8] = Triticum aestivum, post-emergence, 504 h, post-emergent, read-out: Visual Growth Reduction (%) 21 Days After Application TRZSS
[9] = Apera spica-venti, post-emergence, 504 h, post-emergent, read-out: Visual Growth Reduction (%) 21 Days After Application APESV
[10] = Hordeum vulgare, post-emergence, 504 h, post-emergent, read-out: Visual Growth Reduction (%) 21 Days After Application HORSS
[11] = Setaria viridis, post-emergence, 504 h, post-emergent, read-out: Visual Growth Reduction (%) 21 Days After Application SETVI
[12] = Bassia scoparia, post-emergence, 504 h, post-emergent, read-out: Visual Growth Reduction (%) 21 Days After Application KCHSC

| Structure (SMILES) | GR50 LOLSS [1] [g ai/ha] | GR80 LOLSS [1] [g ai/ha] | GR20 TRZSS [2] [g ai/ha] | pest or weed control at 35 g/ha [2, 8] [%] | pest or weed control at 70 g/ha [2, 8] [%] | pest or weed control at 35 g/ha [3, 9] [%] | pest or weed control at 70 g/ha [3, 9] [%] | GR50 APESV [3] [g ai/ha] | GR80 APESV [3] [g ai/ha] | pest or weed control at 35 g/ha [4] [%] | pest or weed control at 70 g/ha [4] [%] | pest or weed control at 35 g/ha [5, 10] [%] | pest or weed control at 70 g/ha [5, 10] [%] | GR20 HORSS [5] [g ai/ha] | pest or weed control at 35 g/ha [6, 11] [%] | pest or weed control at 70 g/ha [6, 11] [%] | GR50 SETVI [6] [g ai/ha] | GR80 SETVI [6] [g ai/ha] | pest or weed control at 35 g/ha [7, 12] [%] | pest or weed control at 70 g/ha [7, 12] [%] | also measured |
| --- | --- | --- | --- | --- | --- | --- | --- | --- | --- | --- | --- | --- | --- | --- | --- | --- | --- | --- | --- | --- | --- |
| C=Cc1c(C(=O)O)nc(-c2ccc(Br)cc2)c(F)c1N [Compound 117] | 41 | >140 | 32 | 0 to 29 | 30 to 44 | 45 to 59 | 60 to 74 | 41 | >140 | 45 to 59 | 60 to 74 | 0 to 29 | 0 to 29 | 73 | 0 to 29 | 60 to 74 | 59 | 99 | 60 to 74 | 75 to 84 | GR50 KCHSC [7]: 20 g ai/ha; GR80 KCHSC [7]: 67 g ai/ha |
| Nc1cc(-c2ccc(Br)cc2F)nc(C(=O)O)c1Cl [Compound 74] | >140 | >140 | 1 | 75 to 84 | 75 to 84 | 85 to 94 | 85 to 94 | 10 | 25 | 30 to 44 | 45 to 59 | 85 to 94 | 85 to 94 | 1 | 75 to 84 | 85 to 94 | 3 | 49 | 85 to 94 | 95 to 100 | GR50 KCHSC [7]: 3 g ai/ha; GR80 KCHSC [7]: 11 g ai/ha |
| C#Cc1ccc(-c2nc(C(=O)O)c(C=C)c(N)c2F)cc1 [Compound 36] | >140 | >140 | 1 | 75 to 84 | 75 to 84 | 0 to 29 | 0 to 29 | >140 | >140 | 0 to 29 | 0 to 29 | 30 to 44 | 60 to 74 | 16 | 0 to 29 | 30 to 44 | 126 | >140 | 0 to 29 | 0 to 29 | GR50 KCHSC [7]: >140 g ai/ha; GR80 KCHSC [7]: >140 g ai/ha |
| Nc1c(Cl)c(C(=O)O)nc(-c2ccc(C(F)(F)F)c(F)c2)c1Cl [Compound 146] | >140 | >140 | 1 | 75 to 84 | 85 to 94 | 95 to 100 | 95 to 100 | 23 | 34 | 0 to 29 | 0 to 29 | 75 to 84 | 85 to 94 | 1 | 45 to 59 | 75 to 84 | 41 | 76 | 0 to 29 | 0 to 29 | pest or weed control at 140 g/ha ([2]; Triticum aestivum, post-emergence, 504 h, 140 g ai/ha, post-emergent, read-out: Visual Growth Reduction (%) 21 Days After Application TRZSS): 85 to 94%; pest or weed control at 140 g/ha ([3]; Apera spica-venti, post-emergence, 504 h, 140 g ai/ha, post-emergent, read-out: Visual Growth Reduction (%) 21 Days After Application APESV): 95 to 100%; pest or weed control at 140 g/ha ([4]; 140 g ai/ha): 0 to 29%; pest or weed control at 140 g/ha ([5]; Hordeum vulgare, post-emergence, 504 h, 140 g ai/ha, post-emergent, read-out: Visual Growth Reduction (%) 21 Days After Application HORSS): 95 to 100%; pest or weed control at 140 g/ha ([6]; Setaria viridis, post-emergence, 504 h, 140 g ai/ha, post-emergent, read-out: Visual Growth Reduction (%) 21 Days After Application SETVI): 95 to 100%; pest or weed control at 140 g/ha ([7]; Bassia scoparia, post-emergence, 504 h, 140 g ai/ha, post-emergent, read-out: Visual Growth Reduction (%) 21 Days After Application KCHSC): 0 to 29%; GR50 KCHSC [7]: >140 g ai/ha; GR80 KCHSC [7]: >140 g ai/ha |
